Read-outs that look alike come from different tables or passages of the source.
What was measured:
C. lagenarium = assay: Spore germination assay, fungicidal activity against C. lagenarium; format: cell-based, Colletotrichum lagenarium; conditions: Colletotrichum orbiculare
Experimental: (§1) The fungal pathogens C. lagenarium and B. cinerea was provided by the Agricultural Culture Collection of China (Yangling, Shaanxi, China). C. lagenarium was cultured for 2 weeks at 25 ± 1 °C on potato dextrose agar (PDA) while B. cinerea was cultured at 20 °C on the same medium after being retrieved from the storage tube. Plates were flooded with sterile distilled water, and then conidia were scraped with a glass rod. Mycelial debris was removed by filtration. The spores were harvested and suspended in sterile distilled water containing 0.1% (v/v) Tween 20. The concentration of the spore suspension was adjusted to 1.0 × 10^6 spores/mL with sterilized distilled water following.
(§2) The tested samples (10.0 mg) dissolved in acetone (0.1 mL) were diluted with sterile distilled water to prepare 10.0 mL stock solution, which was further diluted to prepare test solutions in which the final concentration of acetone was <1% (v/v). A series of concentrations of tested samples and one control (1% acetone with sterile distilled water) were separately tested for spore germination of C. lagenarium or B. cinerea. The samples were inoculated with spore suspension of C. lagenarium or B. cinerea containing 1.0 × 10^6 spores/mL. Aliquots of 10 μL of prepared spore suspension were placed on separate glass slides in triplicate. Slides containing the spores were incubated in a moisture chamber at 25 °C for 6~8 h. Each slide was then observed under the microscope for spore germination. Spores were considered to have germinated if the length of the germ tube was at least half the length of the spore. Afterward, spore germination was stopped by applying a drop of lactophenol-cotton blue to the inoculation sites on plates. The numbers of generated spores were counted under a microscope (Olympus BX61, Tokyo, Japan), and the percentage of germinated spores was calculated. Chlorothalonil was used as the positive control.

B. cinerea = assay: Spore germination assay, fungicidal activity against B. cinerea; format: cell-based, Botrytis cinerea; conditions: Botrytis cinerea, in vitro, n = 3
Experimental: as §1, §2

HepG2 cell line = assay: Cytotoxic activity against human tumor cells line (HepG2); format: cell-based
[1] = Table 1, from IC50 in μM, read-out: pIC50, C. lagenarium (converted)
[2] = Table 2, fungicidal activity against C. lagenarium used for QSAR, read-out: pIC50 (converted)
[3] = Table 4, experimental, C. lagenarium, read-out: Exp. pIC50 (converted)
[4] = Table 6, read-out: IC50 (μM) (against C. lagenarium)
[5] = in vitro, spore germination, n = 3, read-out: IC50, C. lagenarium

Compound	melting point [°C]	IC50 (C. lagenarium; [1]) [µM]	IC50 (C. lagenarium; [2]) [µM]	IC50 (C. lagenarium; [3]) [µM]	IC50 (C. lagenarium; [4]) [µM]	IC50 (C. lagenarium; [5]) [µM]	IC50 (B. cinerea) [µM]	IC50 (HepG2 cell line) [µM]
C=C1CC(c2ccc(OC(=O)CC)cc2)OC1=O (stereo not shown) [Compound 4p, 4-[4-(Propionyloxy)phenyl]-2-methylenebutyrolactone]	–	207	207	207	207	207	237	19.5
C=C1CC(c2ccc(OC(=O)c3cccc(Cl)c3)cc2)OC1=O (stereo not shown) [Compound 4b, 4-[4-(3-Chlorobenzoyloxy)phenyl]-2-methylenebutyrolactone]	168.8 to 169.2	8.99	8.99	8.99	8.99	8.99	22.1	22.4
C=C1CC(c2ccc(OC(=O)c3cccc(C#N)c3)cc2)OC1=O (stereo not shown) [Compound 4g, 4-[4-(3-Benzonitrile)phenyl]-2-methylenebutyrolactone]	–	52.8	52.8	52.8	52.9	52.9	60.6	18.3
C=C1CC(c2ccccc2OC(=O)CCC)OC1=O (stereo not shown) [Compound 5m, 4-[2-(Butyryloxy)phenyl]-2-methylenebutyrolactone]	–	174	174	174	174	174	206	23.8
C=C1CC(c2ccccc2OCC)OC1=O (stereo not shown) [Compound 5r, 4-(2-Ethoxyphenyl)-2-methylenebutyrolactone]	–	520	520	520	519	519	549	38.4
C=C1CC(c2ccccc2OC(=O)c2cccc(Br)c2)OC1=O (stereo not shown) [Compound 5d, 4-[2-(3-Bromobenzoyloxy)phenyl]-2-methylenebutyrolactone]	189.7 to 190.4	13.4	13.4	13.4	13.4	13.4	22.9	35.6
C=C1CC(c2ccc(OC(=O)C=Cc3ccc(O)c(OC)c3)cc2)OC1=O (stereo not shown) [Compound 4q]	–	8.93	–	8.93	8.93	8.93	21.5	27.3
C=C1CC(c2cccc(OCCCC)c2)OC1=O (stereo not shown) [Compound 6o, 4-(3-Butoxyphenyl)-2-methylenebutyrolactone]	–	242	242	242	242	242	280	> 108
C=C1CC(c2ccccc2OCCC)OC1=O (stereo not shown) [Compound 5p, 4-(2-Propoxylphenyl)-2-methylenebutyrolactone]	–	499	499	499	499	499	525	> 132
C=C1CC(c2ccccc2OC(=O)c2ccccc2OC)OC1=O (stereo not shown) [Compound 5k, 4-[2-(2-Methoxylbenzoyloxy)phenyl]-2-methylenebutyrolactone]	177.8 to 178.6	292	292	292	–	292	307	–
C=C1CC(c2ccccc2OC(=O)c2ccccc2)OC1=O (stereo not shown) [Compound 5g, 4-(2-Benzoyloxyphenyl)-2-methylenebutyrolactone]	166.3 to 167	171	171	171	–	171	194	–
C=C1CC(c2cccc(OC(=O)C=Cc3ccccc3)c2)OC1=O (stereo not shown) [Compound 6n, 4-(3-Cinnamoyloxyphenyl)-2-methylenebutyrolactone]	–	24.3	24.3	24.3	24.2	24.2	40.3	15.7
C=C1CC(c2ccccc2OC(=O)c2ccc(Br)cc2)OC1=O (stereo not shown) [Compound 5e, 4-[2-(4-Bromobenzoyloxy)phenyl]-2-methylenebutyrolactone]	184.7 to 185.2	15.3	15.3	15.3	–	15.3	36.1	–
C=C1CC(c2ccc(OC(=O)c3ccc(Br)cc3)cc2)OC1=O (stereo not shown) [Compound 4f, 4-[4-(4-Bromobenzoyloxy)phenyl]-2-methylenebutyrolactone]	175.1 to 175.6	14.4	14.4	14.4	–	14.4	23	–
C=C1CC(c2ccccc2OC(=O)c2ccccc2C)OC1=O (stereo not shown) [Compound 5h, 4-[2-(2-Methylbenzoyloxy)phenyl]-2-methylenebutyrolactone]	172.8 to 173.4	216	216	216	–	216	229	–

Further lines, with some results ahead:

melting point [°C]	Compound	IC50 (C. lagenarium; [1]) [µM]	IC50 (C. lagenarium; [2]) [µM]	IC50 (C. lagenarium; [3]) [µM]	IC50 (C. lagenarium; [4]) [µM]	IC50 (C. lagenarium; [5]) [µM]	IC50 (B. cinerea) [µM]	IC50 (HepG2 cell line) [µM]
178.3 to 178.9	C=C1CC(c2cccc(OC(=O)c3ccccc3C)c2)OC1=O (stereo not shown) [Compound 6g, 4-[3-(2-Methylbenzoyloxy)phenyl]-2-methylenebutyrolactone]	159	159	159	159	159	180	22
177.6 to 178.2	C=C1CC(c2cccc(OC(=O)c3cccc(C)c3)c2)OC1=O (stereo not shown) [Compound 6h, 4-[3-(3-Methylbenzoyloxy)phenyl]-2-methylenebutyrolactone]	126	126	126	–	126	148	–
168.6 to 169.4	C=C1CC(c2cccc(OC(=O)c3ccc(Br)cc3)c2)OC1=O (stereo not shown) [Compound 6e, 4-[3-(4-Bromobenzoyloxy)phenyl]-2-methylenebutyrolactone]	9.71	9.71	9.71	–	9.7	27.2	–
168.5 to 168.9	C=C1CC(c2cccc(OC(=O)c3ccc(C)cc3)c2)OC1=O (stereo not shown) [Compound 6i, 4-[3-(4-Methylbenzoyloxy)phenyl]-2-methylenebutyrolactone]	136	136	136	–	137	164	–
175.3 to 175.8	C=C1CC(c2cccc(OC(=O)c3ccccc3Br)c2)OC1=O (stereo not shown) [Compound 6c, 4-[3-(2-Bromobenzoyloxy)phenyl]-2-methylenebutyrolactone]	10.3	10.3	10.3	–	10.3	27.4	–

Source: PMC6273913, “New α-Methylene-γ-Butyrolactone Derivatives as Potential Fungicidal Agents: Design, Synthesis and Antifungal Activities” (Molecules, 2016)
